{"source": "paper PMC8657848", "about": "“Developmental Toxicity and Biotransformation of Two Anti-Epileptics in Zebrafish Embryos and Early Larvae” (International Journal of Molecular Sciences, 2021)", "key": {"[1]": {"test_system": "zebrafish embryos and larvae", "assay": "Morphological evaluation of zebrafish embryos/larvae exposed from 5¼ to 120 hpf", "settings": "in vivo", "method": "Each experiment was performed in two biological replicates (n = 2, 20 embryos/replicate) and consisted of a medium control group (EMS), solvent control group(s) (EMS + 0.5% DMSO and/or EMS + 1% DMSO) and four dose groups. […] Embryos were reared until they reached the desired developmental stage, under the same environmental conditions as the adults (28.5 °C ± 0.3 °C with a 14/10 h light/dark cycle) in the incubator (TIN-IN35, Phoenix instrument, Garbsen, Germany).\nFor the metabolites, E-CBZ (≥98% purity, CAS number: 36507-30-9, Supelco, Merck, Darmstadt, Germany) and HPPH (98% purity, CAS number: 2784-27-2, Sigma-Aldrich®, Merck, Darmstadt, Germany), we only selected one high concentration, 250 µM (see Supplementary Table S1). […] A higher percentage of DMSO was used for E-CBZ for the optimum dissolution of E-CBZ in EMS. Immediately after the selection (see Section 4.1), twenty embryos were randomly distributed in each control and test group. Embryos were exposed at the latest at 5 hpf in a final volume of 300 µL medium at a density of a fish per well.\nFor each biological replicate (n = 2), zebrafish embryos were morphologically investigated at 5¼, 10, 24, 48, 72, 96 and 120 hpf (Figure 9) using an Olympus CKX41 microscope with an Olympus U-TV0.5XC-3 lighting and an Olympys 4x/0.16 Uplan APO microscope objective (Shinjuku, Tokyo, Japon) to follow the developmental stages described by Kimmel et al.. The 5¼- and 10-hpf time points served as control steps to identify unfertilized or coagulated eggs that were included unwittingly to the experiment and referenced as coagulated in the 24-hpf morphological sheet (see Supplementary Figure S3). A series of morphological parameters were explored, adapted from Nagel et al., depending on the different time points of interest and described previously by our group (see Supplementary Figure S3). All parameters were scored 0 if normal and 1 if malformed. This binary scale was used to facilitate the scoring and no gradation of the severity of the endpoints was evaluated in this study."}, "[2]": {"assay": "Microsomal incubation with CBZ and PHE, adult zebrafish liver microsomes", "type": "in vitro ADME, Danio rerio", "settings": "data not shown"}, "[3]": {"assay": "Microsomal incubation with CBZ and PHE, rabbit liver microsomes", "type": "in vitro ADME", "settings": "rabbit adult liver microsomes; data not shown", "method": "(§1) Moreover, positive and negative controls were included: pooled human liver microsomes (Gibco™, HMMCPL–PL050B, Thermo Fisher Scientific) and Insect Cell Control Supersomes™ (lot number: PL050 C-B, 456201, Corning Incorporated, Corning, NY, USA), respectively. Based on Oziolor et al., microsomal reactions were initiated after adding the substrate solution at a concentration of 100 µM (see Supplementary Table S1) in a mixture of 100 mM K3PO4 buffer (Corning® Gentest™, NY, USA) of pH 7.4, 5% and 1% of NADPH regenerating system reagents A and B, respectively (Corning, Woburn, MA, USA) and 200 µg/mL of microsomal protein, for a total volume of 500 µL. The reactions were performed at 28.5 ± 0.3 °C until the time point of interest. […]\n(§2) For the quantification of the metabolites E-CBZ and HPPH, the samples processed were the microsomal incubation reactions (see Section 4.3.2), the zebrafish culture and stock medium (4.2.1) and the zebrafish embryos/larvae extracts (see Section 4.2.3). […] To quantify the concentrations of E-CBZ and HPPH in these samples, standard curves (in duplicate) of 10 concentrations for E-CBZ (0.5–400 ng/mL; see Supplementary Table S1) and HPPH (2–1600 ng/mL; see Supplementary Table S1) were prepared, as were quality controls. […]"}, "[4]": {"assay": "Microsomal incubation with CBZ and PHE, human liver microsomes", "type": "in vitro ADME", "settings": "human adult liver microsomes; data not shown", "method": "as §1, §2"}, "zebrafish embryos": {"test_system": "zebrafish embryos", "settings": "cited from earlier work; for Embryos affected, combining teratogenic and lethal effects: after three days of exposure"}, "[5]": {"settings": "zebrafish (Danio rerio), 120 hpf, 85 µM"}, "[6]": {"settings": "zebrafish (Danio rerio), 120 hpf, 250 µM"}, "[7]": {"settings": "zebrafish (Danio rerio), 120 hpf, 31.25 µM"}}, "note": "Read-outs that look alike come from different tables or passages of the source."}
{"compound": "NC(=O)N1c2ccccc2C=Cc2ccccc21", "note": "[CBZ, carbamazepine]", "values": [{"measurement": "Teratogenicity in zebrafish (conclusion from morphological and analytical assessment)", "setting": "[1]", "result": "teratogens"}, {"measurement": "Coagulation", "setting": "[1]; [5]", "result": "2/20"}, {"measurement": "Deviation Tail Curve", "setting": "[1]; [5]", "result": "1/18"}, {"measurement": "Malformation Head Deviation Eye", "setting": "[1]; [5]", "result": "1/18"}, {"measurement": "Malformation Head Deviation Mouth", "setting": "[1]; [5]", "result": "2/18"}, {"measurement": "Malformation Head Deviation Shape Head", "setting": "[1]; [5]", "result": "3/18"}, {"measurement": "Deviation Tail Curve", "setting": "[1]; [6]", "result": "2/20"}, {"measurement": "Malformation Head Deviation Mouth", "setting": "[1]; [6]", "result": "3/20"}, {"measurement": "Oedema Yolk", "setting": "[1]; [6]", "result": "3/20"}, {"measurement": "Decrease of parent compound after 240 min (pilot investigation)", "setting": "[2]", "result": "no changes"}, {"measurement": "Decrease of parent compound after 240 min (pilot investigation)", "setting": "[3]", "result": "slight decrease"}, {"measurement": "Decrease of parent compound after 240 min (pilot investigation)", "setting": "[4]", "result": "no changes"}, {"measurement": "Embryos affected, combining teratogenic and lethal effects", "setting": "zebrafish embryos; 31.25 µM", "result": "less than 20%"}, {"measurement": "Embryos affected, combining teratogenic and lethal effects", "setting": "zebrafish embryos; 250 µM", "result": "around 50%"}, {"measurement": "Percentage of larvae affected at 72 hpf", "setting": "zebrafish embryos; 250 µM", "result": "48.3 ± 11.5", "unit": "%"}]}
{"compound": "O=C1NC(=O)C(c2ccccc2)(c2ccccc2)N1", "note": "[PHE, phenytoin]", "values": [{"measurement": "Teratogenicity in zebrafish (conclusion from morphological and analytical assessment)", "setting": "[1]", "result": "teratogens"}, {"measurement": "Deviation Tail Curve", "setting": "[1]; [7]", "result": "1/20"}, {"measurement": "Malformation Head Deviation Eye", "setting": "[1]; [7]", "result": "2/20"}, {"measurement": "Deviation Pigmentation", "setting": "[1]; [5]", "result": "2/20"}, {"measurement": "Deviation Tail Elbow", "setting": "[1]; [5]", "result": "1/20"}, {"measurement": "Deviation Tail Tissue Deviation", "setting": "[1]; [5]", "result": "2/20"}, {"measurement": "Deviation Tail Elbow", "setting": "[1]; [6]", "result": "2/20"}, {"measurement": "Deviation Tail Tissue Deviation", "setting": "[1]; [6]", "result": "1/20"}, {"measurement": "No Hatching", "setting": "[1]; [6]", "result": "1/20"}, {"measurement": "Oedema Head", "setting": "[1]; [6]", "result": "1/20"}, {"measurement": "Oedema Pericardium", "setting": "[1]; [6]", "result": "1/20"}, {"measurement": "Oedema Yolk", "setting": "[1]; [6]", "result": "1/20"}, {"measurement": "Decrease of parent compound after 240 min (pilot investigation)", "setting": "[2]", "result": "No decrease"}, {"measurement": "Decrease of parent compound after 240 min (pilot investigation)", "setting": "[3]", "result": "very slight decrease"}, {"measurement": "Decrease of parent compound after 240 min (pilot investigation)", "setting": "[4]", "result": "No decrease"}, {"measurement": "Embryos affected, combining teratogenic and lethal effects", "setting": "zebrafish embryos; 31.25 µM", "result": "less than 20%"}, {"measurement": "Embryos affected, combining teratogenic and lethal effects", "setting": "zebrafish embryos; 250 µM", "result": "around 50%"}, {"measurement": "Percentage of larvae affected at 72 hpf", "setting": "zebrafish embryos; 250 µM", "result": "45.0 ± 21.8", "unit": "%"}]}
